Inhibition data for one compound are collected here from US7648966B2, “Mannose-6-phosphonate compounds for the treatment of inflammatory diseases” (Pharmaxis Pty Limited, priority 2003, dated 2010).

In this experiment the test system is MBP-specific T lymphocyte cell lines migrating across rat brain endothelial cell monolayer. In words: Inhibition of T-lymphocyte migration across rat brain endothelial cell layer (Transwell, 51Cr-labeled cells). Type of experiment: cell-based, Lewis rats. Conditions: Rattus norvegicus, T-cell; 10 mM in upper well; 6 hours; compared with negative control; read-out: % inhibition (±SEM) of T cell migration. As to the method: Preparation of Brain Endothelial Cells (ECs)
Vascular ECs were isolated from rat brain capillaries of 6 to 8 week old Lewis rats according to the method of Risau, W et al., 1990, J. Cell Biol. 110:1757-1766 (which is incorporated herein by reference). Colonies of ECs were purified from astroglial cells and pericytes using anti-Thy1.1-antibody and complement-mediated lysis to remove unwanted Thy1.1+ cells.
The EC colonies were grown, using conventional methods, in Dulbecco's Modified Eagle's Medium (DMEM)-high glucose, supplemented, with 20% fetal calf serum (FCS), glutamine, pyruvate, nonessential amino acids, HEPES buffer and antibiotics (kanamycin, amphotericin), and heparin (all from GIBCO). Cultures were supplemented with 150 μg/ml “endothelial growth supplement” from Collaborative Biomedical Products. Upon reaching confluence, EC cultures were washed with 0.2% EDTA in phosphate buffered saline (PBS), trypsinized (Trypsin-EDTA, 0.1% final concentration), washed and re-treated with anti-Thy1.1 antibody for 40 min, washed and incubated with complement sufficient to lyse all Thy1.1+ cells (Behringwerke, AG, Marburg, Germany) at room temperature.
ECs were then plated on Matrigel®-coated 6.5 mm Transwells, […] (Corning Costar Corporation, Cambridge, Mass.). Presence of ECs and confluence of the monolayer were checked by measuring the electrical resistance (World Precision Instruments, New Haven, U.S.A., model EVOM-G) and by staining with FITC-labeled phalloidin (Sigma).
Myelin Basic Protein (MBP)-Specific T Cell Lines
To study the effect of agents of the present invention on T lymphocyte migration, MBP-specific T lymphocyte cell lines were generated according to the method of Ben-Nun et al., Europ. J. Immunol. 11:195-199 (1981); incorporated herein by reference) starting with lymphocytes from the LNs of Lewis rats that had been immunized with MBP in complete Freund's adjuvant (CFA). These cells were used for migration studies during the first 4 days of their propagation in IL-2-containing medium, following MBP restimulation in the presence of antigen-presenting cells (irradiated spleen or thymus cells from normal Lewis rats).
These stimulated T lymphocytes were radiolabeled with ^51Cr (Na^51Cr04, 37 MBq/ml, Amersham, UK) for 30 minutes at 37° C. with occasional agitation, they were then washed three times with DMEM and placed into the upper chamber of the Transwells at 5×10^5 cells in 100 μl of “migration medium.” Test and control substance were included in the upper wells at final concentrations of 0.1, 1 and 10 mM. Cell migration was assessed visually by light microscopy to gauge progress of the experiment. The experiment was terminated after 6 hours, whereupon the undersurface of the membrane filters were rinsed twice with 100 μl of ice-cold PBS-0.2% EDTA and combined with the medium of the lower chamber of the well. The combined material was counted for radioactivity in a gamma counter (Packard Auto-Gamma 5650 (Downer's Grove Ill., USA) gamma counter. Each “treatment” group was run in triplicate (test agent, control agent (glucose 6-phosphate) and no treatment).
Inhibition values are in comparison with the negative control.

In the case of `Cc1ccc(O[C@H]2O[C@H](CCP(=O)(O)O)[C@@H](O)[C@H](O)[C@@H]2O)c(C)c1`, the inhibition at 10000 µM was found to be 90 ± 4%.
